The results in this text go back to patent publication US10633383B2, “Compounds for the treatment, alleviation or prevention of disorders associated with Tau aggregates” (AC Immune SA, priority 2018, dated 2020).

Assay [1] has as its target T1, Tau K18 fragment (amino acids 244 to 372 of human Tau441) aggregates (Homo sapiens, UniProt P10636).
T1 construct: encompassing amino acids 244 to 372 of the longest isoform (2N4R) of human Tau441; host or cells: bacteria
As to the kind of experiment: Tau K18 disaggregation assay by ThT. The following applies: 2 μM K18 aggregates, 30 minutes at RT, ThT fluorescence. The assay is classed as biochemical. On the procedure: Tau K18 Disaggregation Assay by ThT
(§1) Compounds were dissolved in anhydrous dimethyl sulfoxide (DMSO, Sigma-Aldrich) to reach a concentration of 10 mM. K18 aggregates and serial dilutions of compounds were mixed together in PBS (volume 50 μL) to a final concentration of 2 μM of K18 aggregates and from 160 to 0.04 μM of compounds. The mixture was incubated for 30 minutes at room temperature (RT), then 40 μL of this mixture were transferred into a black 384-well plate assay (Perkin-Elmer) and mixed with 10 μL of 100 μM ThT in 250 mM glycine (both from Sigma-Aldrich) in PBS. Fluorescence (relative fluorescence units; RFU) was measured in monoplicate or duplicate on a Tecan reader (excitation: 440 nm; emission: 485 nm). Percentage of K18 disaggregation was then calculated and half maximal effective concentration (EC50) was determined using GraphPad Prism version 5 (GraphPad Software) assuming a one-binding site fitting model.

Assay [2] has as its system human neuroblastoma cell line overexpressing the full-length form of human Tau carrying the P301L mutation. As to the kind of experiment: Reduction of intracellular Tau aggregation (AlphaLISA). The assay is classed as cell-based. The following applies: compound at 5 μM, 24 h, aggregated Tau normalized to total Tau, relative to DMSO-treated cells. The method, then: Reduction of Intracellular Tau Aggregation
A human neuroblastoma cell line overexpressing the full-length form of human Tau carrying the P301L mutation was cultured in complete medium [DMEM-F12 4.5 g/L Glutamax (Invitrogen), 15% FBS (Biochrom), 1% Peni/Strep (Invitrogen) supplemented with 2.5 μg/ml of G418 (Sigma-Aldrich) selection antibiotic]. The day before the experiment 5×10^5 cells/well were plated in a 6 well plate in 3 mL of complete medium. The next day, cells were incubated with DMSO or a compound of the present invention at a 5 μM for additional 24 h at 37° C. After incubation, cells were trypsinized, resuspended in 100 μl of homogenization buffer [25 mM Tris-HCl pH 7.4, 150 mM NaCl, 1 mM EDTA, 1 mM EGTA containing phosphatase inhibitors (30 mM NaF, 0.2 mM Na3VO4, 1 nM Okadaic acid, 1 mM PMSF, 5 mM Na4P2O7) and protease inhibitor cocktail (Complete™, Roche)], and then physically lysed with three rapid cycles of freezing and thawing. Samples were then directly tested in the AlphaLISA assay. Phosphorylated, aggregated, and total Tau were quantified by AlphaLisa using the following antibody pairs: • HT7-Acceptor beads+biotin (BT)-Tau13-Donor beads: Total Tau • HT7-Acceptor beads+biotin (BT)-HT7-Donor beads: Aggregated human Tau
The Tau13 (Abcam) was biotinylated using EZ-Link® NHS-PEO Solid Phase biotinylation kit (Thermo Scientific), while the HT7-biotin was from a commercial source (Thermo Scientific).
For each antibody pairs the concentration of acceptor beads and biotinylated antibodies was optimized. All samples were first tested in a dilution series in PBS in order to identify the linear range and optimal dilution for each sample and assay. For the final protocol, the following reagents were added in a 384-well white OptiPlate (PerkinElmer): • 5 μL of test diluted sample • 20 μL of the mixture biotin-mAb acceptor beads at the following final concentrations: • HT7-BT at 1.25 nM in combination with HT7-Acc beads at 10 μg/ml • Tau13-BT at 5 nM in combination with HT7-Acc beads at 2.5 μg/ml
After incubation of this mixture at room temperature for 1 h, 25 μL of Streptavidin Donor beads (Perkin Elmer) at 25 μg/mL were added in the dark. Plates were analyzed after 30 min incubation using the EnSpire Alpha instrument and EnSpire Workstation version 3.00. Data for aggregated Tau were normalized to total Tau and then expressed as percentage of the DMSO-treated cells.
(In general: Bead proximity is the source of the signal in Alpha formats.)

Assay [3] addresses T2, recombinant full-length (fl)Tau (human Tau 2N4R) aggregates (Homo sapiens, UniProt P10636).
T2 construct: 35 μM of recombinant full-length (fl)Tau in PBS were aggregated; made in house; host or cells: bacteria
Put plainly: Full-length Tau (flTau) disaggregation assay by Thioflavin T (ThT). The assay is classed as biochemical. The following applies: 2 μM flTau aggregates, 30 minutes at RT, ThT fluorescence. On the procedure:
Full-Length Tau (flTau) Disaggregation Assay by Thioflavin T (ThT)
as §1, with “The longest isoform of human Tau (2N4R; 441 amino acids) was expressed in bacteria and purified. For the Tau disaggregation assay by ThT, 35 μM of recombinant full-length (fl)Tau in PBS were aggregated for 24 hours at 37° C. in presence of 50 μM of heparin (Sigma-Aldrich) and 10 mM of DTT (Sigma-Aldrich) under shaking at 750 RPM. Compounds were” for “Compounds were”, “10 mM. flTau aggregates and” for “10 mM. K18 aggregates and”, “μM of flTau aggregates and” for “μM of K18 aggregates and”, “Percentage of flTau disaggregation was” for “Percentage of K18 disaggregation was”, “calculated and the half maximal” for “calculated and half maximal”

pEC50: −log10 of the molar value.

T2 sequence (P10636 1-441 isoform P10636-8): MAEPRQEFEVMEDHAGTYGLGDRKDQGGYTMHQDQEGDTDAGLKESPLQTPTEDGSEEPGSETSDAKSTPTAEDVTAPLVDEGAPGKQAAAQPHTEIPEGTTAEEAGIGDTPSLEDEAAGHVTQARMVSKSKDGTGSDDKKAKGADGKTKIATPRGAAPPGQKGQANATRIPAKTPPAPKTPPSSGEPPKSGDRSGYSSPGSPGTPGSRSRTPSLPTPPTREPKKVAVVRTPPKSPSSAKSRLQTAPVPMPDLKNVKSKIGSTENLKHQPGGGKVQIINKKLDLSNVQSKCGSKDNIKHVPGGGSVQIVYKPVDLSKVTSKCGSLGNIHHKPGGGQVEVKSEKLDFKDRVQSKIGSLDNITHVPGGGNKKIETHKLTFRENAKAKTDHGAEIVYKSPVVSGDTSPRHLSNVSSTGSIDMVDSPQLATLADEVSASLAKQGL
T1 sequence (P10636 561-689): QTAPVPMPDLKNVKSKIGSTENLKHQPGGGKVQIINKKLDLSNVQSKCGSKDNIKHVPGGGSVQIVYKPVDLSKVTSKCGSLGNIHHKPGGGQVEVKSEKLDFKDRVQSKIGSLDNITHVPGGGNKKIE

With `Fc1ccc2[nH]c3c(c2c1)CN(c1ccc2nc(N4CCOCC4)sc2c1)CC3` [Example 6], the pEC50 (usually the negative decadic logarithm of the EC50, by convention in mol/L) in assay [1] is more than 5.00. Besides, the inhibition (usually the drop in the measured response relative to a control, in per cent) at 5 µM in assay [2] fell in the range of 25 to 50%.

Take `COc1ccc2[nH]c3c(c2c1)CN(c1ccc2nc(N4CCOCC4)sc2c1)CC3` [Example 19]: the pEC50 in assay [3] was more than 5.00. The inhibition at 5 µM in assay [2] was 25 to 50%.

For the molecule `Fc1ccc2c3c([nH]c2c1)CCN(c1ccc2oc(N4CCOCC4)nc2c1)C3` [Example 45, 5-(7-fluoro-1,3,4,5-tetrahydropyrido[4,3-b]indol-2-yl)-2-morpholino-1,3-benzoxazole], the pEC50 in assay [1] and in assay [3] was more than 5.00 throughout. Also, the inhibition at 5 µM in assay [2] is more than 50%.

For the molecule `Fc1cccc2[nH]c3c(c12)CN(c1ccc2sc(N4CCOCC4)nc2c1)CC3` [Example 52], in assay [3], the pEC50 was more than 5.00. Also, the inhibition at 5 µM in assay [2] was in the range of 10 to 25%.

On to `CN(C)c1nc2ccc(N3CCc4[nH]c5cc(F)ccc5c4C3)cc2o1` [Example 55], for which the pEC50 in assay [3] is more than 5.00. Also, the inhibition at 5 µM in assay [2] lay within 10 to 25%.

`Cn1c2c(c3ccc(F)cc31)CN(c1ccc3nc(N4CCOCC4)sc3c1)CC2` [Example 64]: in assay [3], the pEC50 was more than 5.00. For the same molecule, the inhibition at 5 µM in assay [2] lay in the range of 10 to 25%.

For `CN(C)c1nc2cc(N3CCc4[nH]c5cc(F)ccc5c4C3)ccc2s1` [Example 69], the pEC50 in assay [3] was more than 5.00. Also, the inhibition at 5 µM in assay [2] is more than 50%.

Consider `Fc1ccc2c3c([nH]c2c1)CCN(c1ccn2nc(N4CCOCC4)nc2c1)C3` [Example 70], for which the pEC50 in assay [1] was more than 5.00. Also, the inhibition at 5 µM in assay [2] is 25 to 50%.
